Source: PMC12648864 (Biology of Sex Differences, 2025)
Values joined by “and” are separate entries in the source; they are usually repeats but may differ in a detail not shown here. Equal entries are not always repeated. Where two headings read alike, the source gives them in different places.

Test system: plasma metabolites
Type: in vivo, rat
Protocol: Male and female SD rats were divided into experimental and control groups. Each group contained 10 male and 10 female rats. […] Blood was collected from orbital vein into sodium heparin-coated centrifugal tubes pre-chilled at 4 ℃, at 30 min, 2 h, and 12 h post-administration respectively. Plasma was separated by gentle inversion, immediately quenched in liquid nitrogen, and centrifuged at 1500 g for 10 min at 4 ℃. The prepared plasma was stored at − 80 ℃ until LC-MS/MS analysis.
The stored plasma samples were thawed at 4 °C, and 100 µL of each sample was transferred to a centrifuge tube. Proteins were precipitated using 1 mL of methanol/acetonitrile/water solution (2:2:1, v: v:v) at 4 °C. After vortex mixing, the sample mixture was sonicated for 30 min (ice was used to maintain the low-temperature conditions). The sonicated mixture was allowed to stand for 10 min at […], then centrifuged at 14,000 g for 20 min at 4 °C. The resulting supernatant was collected and dried under vacuum. For instrumental analysis, the dried supernatant was reconstituted in 100 µL of aqueous acetonitrile solution, vortexed, then centrifuged at 14,000 g for 15 min at 4 °C. To ensure instrument stability and data reliability, quality control samples were prepared and analyzed using random sampling.
Chromatographic conditions: separation was performed in a Waters Acquity UPLC BEH Amide column (1.7 μm, 2.1 × 100 mm). The column temperature was 25 ℃ and flow rate was 0.5 mL/min. The injection volume was 2 µL, with the mobile phases consisting of A: water + 25 mM ammonium acetate + 25 mM ammonia, and B: acetonitrile. The gradient elution program was as follows: 0–0.5 min, 95% B; 0.5–7 min, 95%−65% B; 7–8 min, 65%−40% B; 8–9 min, 40% B; 9–9.1 min, 40%−95%B; 9.1–12 min, 95%B.
MS conditions: Detection was carried out using electrospray ionization in both positive and negative ion modes. The following parameters were used: spray voltage, ± 5500 V; ionization temperature, 600 ℃; nebulization air pressure, 60 psi; auxiliary air pressure, 60 psi; air curtain air pressure, 30 psi; time-of-flight MS scanning range (m/z), 60–1000 Da; product ion scanning range, 25–1000 Da. The secondary mass spectra were acquired using information-dependent acquisition in high-resolution mode. The cone bore voltage was ± 60 V (positive and negative modes) and collision energy was 35 ± 15 eV.
Orthogonal partial least squares-discriminant analysis (OPLS-DA) were computed for control female and male rats. […] Differential metabolites were identified using stringent criteria: variable importance in projection (VIP) scores > 1 and statistically significant from t-test.
OPLS-DA scores were calculated for the control group and experimental male rats. […] Differential metabolites were identified using stringent selection criteria: VIP scores > 1.0 and P < 0.05, as derived from the OPLS-DA model.
We performed pairwise comparisons of metabolites between male and female rats in the experimental and control groups. […] We performed KEGG enrichment analysis on metabolites that differed between male and female rats in the experimental group (Fig. 6G-I).

[1] = male rats, test (TM3) vs control (BM3), 30 minutes, plasma
[2] = female rats, 30 minutes, test group (TF3, strychnine) vs control group (BF3), plasma metabolite
[3] = male rats, test (TM5) vs control (BM5), 2 hours, plasma
[4] = female rats, 2 hour, test group (TF5, strychnine) vs control group (BF5), plasma metabolite
[5] = female rats, 12 hour, test group (TF8, strychnine) vs control group (BF8), plasma metabolite
[6] = male rats, test (TM8) vs control (BM8), 12 hours, plasma

SMILES	Fold change [2]	Fold change [5]	Fold change [6]	further results
CCCCCCCC/C=C\CCCCCCCC(=O)O[C@H](COC(=O)CCCCCCCCCCCCCCCCC)COP(=O)([O-])OCC[N+](C)(C)C				Fold change [1]: 0.7683
CCCCCCCC/C=C\CCCCCCCC(=O)OC[C@H](COP(=O)([O-])OCC[N+](C)(C)C)OC(=O)CCCCCCC/C=C\CCCCCCCC	0.7409			Fold change [1]: 1.344
CCCCC/C=C\C/C=C\CCCCCCCC(=O)OCC(O)CO (racemic) [MG(18:2(9Z,12Z)/0:0/0:0)[rac]]				Fold change [1]: 0.8489
C[n+]1cccc(C(N)=O)c1 [1-Methylnicotinamide]				Fold change [3]: 1.347
CCCCCCCCCCCCCC(=O)OC[C@@H](O)COP(=O)([O-])OCC[N+](C)(C)C [1-Myristoyl-sn-glycero-3-phosphocholine]	0.7956	0.767	1.421	Fold change [4]: 0.6202; Fold change [1]: 1.568
CCCCCCCC/C=C\CCCCCCCC(=O)OC[C@@H](O)COP(=O)([O-])OCC[N+](C)(C)C [1-Oleoyl-sn-glycero-3-phosphocholine]	0.8445			
CCCCCCCCCCCCCCCC(=O)OCC(O)CO (stereo not shown) [1-Palmitoylglycerol]	0.3279	1.171		Fold change [3]: 0.6081
CCCCCCCCCCCCCCCC(=O)OC[C@@H](O)COP(=O)([O-])OCC[N+](C)(C)C [1-Palmitoyllysophosphatidylcholine]				Fold change [3]: 1.155
CCCCCCCCCCCCCCCCCC(=O)OC[C@@H](O)COP(=O)([O-])OCC[N+](C)(C)C [1-Stearoyl-sn-glycerol 3-phosphocholine]			0.2224	Fold change [1]: 0.8936
C=C1CC[C@H](O)C/C1=C/C=C1\CCC[C@]2(C)[C@@H]([C@H](C)CCCC(C)C)CC[C@@H]12 [Cholecalciferol (Vitamin D3)]	1.921			Fold change [3]: 1.578
O=C(O)[C@H]1CCCCN1 [D-Pipecolinic acid]	2.231			Fold change [4]: 1.817
CCCC[C@H](N)C(=O)O [L-Norleucine]	0.6394	1.298	0.6711	Fold change [4]: 1.28
CCCCCCCCCCCCCCCC(=O)O[C@H](CC(=O)[O-])C[N+](C)(C)C [L-Palmitoylcarnitine]	2.52			Fold change [4]: 1.713
O=C(O)[C@@H]1CCCCN1 [L-Pipecolic acid]	0.7035	1.276		Fold change [4]: 1.162
CC(C)CCC[C@@H](C)[C@H]1CC[C@H]2C3=CC[C@H]4C[C@@H](O)CC[C@]4(C)[C@H]3CC[C@]12C [Lathosterol]	2.481	0.602	3.049	
CCCCCCCCCCCCC/C=C/[C@@H](O)[C@H](CO)NC(=O)CCCCCCCCCCCCCCC [N-Palmitoylsphingosine]			1.476	
CN(C)C(N)=NCCC[C@H](N)C(=O)O [NG,NG-dimethyl-L-arginine(ADMA)]				Fold change [1]: 0.5058
CC(=O)OC[C@H](N)C(=O)O [O-Acetyl-L-serine]				Fold change [1]: 0.6094
CCCCCCCCCCCCCCCC(=O)OC[C@H](COP(=O)([O-])OCC[N+](C)(C)C)OC(=O)CCCCCCCCCCCCCCC [PC(16:0/16:0)]			0.7843	
CSC[C@H]1O[C@@H](n2cnc3c(N)ncnc32)[C@H](O)[C@@H]1O [S-Methyl-5'-thioadenosine]			0.6708	
CCCCCCCCCCCCCCC[C@@H](O)[C@@H](N)CO [Sphinganine]	1.985			
CCCCCCCCCCCCC/C=C/[C@@H](O)[C@H](COP(=O)([O-])OCC[N+](C)(C)C)NC(=O)CCCCCCCCCCCCCCCCC [Sphingomyelin (d18:1/18:0)]				Fold change (rat, in vivo): 1.142 and 1.189
COc1ccc(-c2cc(=O)c3c(OC)c(OC)c(OC)c(OC)c3o2)cc1 [Tangeritin]		9.489	0.02313	Fold change [4]: 3.045
CCCCCCCCCCCCCCCCSC[C@H](COP(=O)(O)OCC[N+](C)(C)C)NC(=O)CCCCCCCCCCCCCCC [Thioetheramide-PC]		1.1574	0.7991	
NC(N)=O [Urea]				Fold change [4]: 1.116
O=C1CCCCCN1 [epsilon-Caprolactam]	1.263	0.793		Fold change [3]: 0.6921
